The source of these data is patent US20080207614A1, “QUINAZOLINE DERIVATIVES FOR THE TREATMENT AND PREVENTION OF DIABETES AND OBESITY” (SK CHEMICALS CO., LTD., priority 2004, published 2008).

In this experiment the test system is C2C12 muscle cells. Briefly: Analysis of glucose absorption (2-deoxyglucose) in differentiated C2C12 muscle cells. It counts as cell-based. The settings on record: test materials 10 μM, times relative to control group. In short, it runs like this: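 Differentiated C2C12 myotubes (6 days in 1% serum) held 3 h in KRB with 5 mM glucose, then given test material at 10 μM. After 30 min, 0.2 μCi 2-deoxyglucose added for 20 min; uptake measured by radioactive counting of NaOH lysates.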
As to `Fc1cccc(CCNc2nc(-c3ccccn3)nc3ccccc23)c1` [Compound 232, [2-(3-Fluorophenyl)-ethyl]-(2-pyridino-2-ylquinazolino-4-yl)-amine], the Glucose absorption is reported as 1.2.

`COc1ccc(Nc2nc(-c3ccccc3)nc3ccccc23)cc1O` [Compound 84, 2-Methoxy-5-(2-phenylquinazolino-4-ylamino)phenol] showed a Glucose absorption of 1.0.

With `c1ccc(CNc2nc(-c3ccncc3)nc3ccccc23)cc1` [Compound 247, Benzyl-(2-pyridino-4-ylquinazolino-4-yl)-amine], the Glucose absorption came out at 1.3.

The compound `c1ccc(Oc2ccccc2Nc2nc(-c3ccccc3)nc3ccccc23)cc1` [Compound 80, (2-Phenoxy-phenyl)-(2-phenylquinazolino-4-yl)-amine] returned a Glucose absorption of 1.0.

`FC(F)(F)c1cccc(CNc2nc(-c3ccccc3)nc3ccccc23)c1` [Compound 66, (2-Phenylquinazolino-4-yl)-(3-trifluoromethylbenzyl)-amine] registered a Glucose absorption of 1.3.

`c1ccc(CCNc2nc(-c3ccccc3)nc3ccccc23)cc1` [Compound 68, Phenethyl-(2-phenylquinazolino-4-yl)-amine]: the Glucose absorption is listed as 1.3.

Compound `Clc1ccc(-c2nc(NCCc3ccccc3)c3ccccc3n2)cc1` [Compound 263, [2-(4-Chlorophenyl)-quinazolino-4-yl]-phenethylamine] gave a Glucose absorption of 1.1.

`COc1cccc(CNc2nc(Cc3ccccc3)nc3ccccc23)c1` [Compound 212, (2-Benzylquinazolino-4-yl)-(3-methoxybenzyl)-amine] showed a Glucose absorption of 2.0.

On to `c1ccc(-c2nc(NCc3cccs3)c3ccccc3n2)cc1` [Compound 59], for which the Glucose absorption is given as 1.2.

Take `CC(C)CNc1nc(-c2ccccc2)nc2ccccc12` [Compound 55, Isobutyl-(2-phenylquinazolino-4-yl)-amine]: the Glucose absorption is 1.2.

On to `Fc1cccc(CCNc2nc(Cc3ccccc3)nc3ccccc23)c1` [Compound 220, (2-Benzylquinazolino-4-yl)-[2-(3-fluorophenyl)-ethyl]-amine], for which the Glucose absorption worked out at 2.5.

For the compound `CC(Nc1nc(-c2ccccc2)nc2ccccc12)c1ccccc1` (centres unmarked) [Compound 87, (1-Phenylethyl)-(2-phenylquinazolino-4-yl)-amine], the Glucose absorption was 1.0.

`COCCNc1nc(-c2ccccc2)nc2ccccc12` [Compound 67, (2-Methoxy-ethyl)-(2-phenylquinazolino-4-yl)-amine] registered a Glucose absorption of 0.9.

The compound `CCCCN(CCO)c1nc(-c2ccccc2)nc2ccccc12` [Compound 157, 2-[Butyl-(2-phenylquinazolino-4-yl)-amino]-ethanol] returned a Glucose absorption of 2.0.

Take `Fc1cccc(CNc2nc(-c3ccncc3)nc3ccccc23)c1` [Compound 255, (3-Fluorobenzyl)-(2-pyridino-4-ylquinazolino-4-yl)-amine]: the Glucose absorption is reported as 1.3.

Consider `CC(C)OCCCNc1nc(-c2ccccc2)nc2ccccc12` [Compound 62, (3-Isopropoxypropyl)-(2-phenylquinazolino-4-yl)-amine], for which the Glucose absorption was determined as 1.1.

As to `COc1ccc(CNc2nc(Cc3ccccc3)nc3ccccc23)cc1` [Compound 213, (2-Benzylquinazolino-4-yl)-(4-methoxybenzyl)-amine], the Glucose absorption turned out to be 1.4.

For the compound `COc1cccc(OC)c1CNc1nc(-c2ccccc2)nc2ccccc12` [Compound 154, (2,6-Dimethoxybenzyl)-(2-phenylquinazolino-4-yl)-amine], the Glucose absorption is reported as 2.5.

Compound `C=CCNc1nc(-c2ccccc2)nc2ccccc12` [Compound 97, Allyl-(2-phenylquinazolino-4-yl)-amine] displayed a Glucose absorption of 1.0.

`COc1cc(CNc2nc(-c3ccccc3)nc3ccccc23)cc(OC)c1` [Compound 92, (3,5-Dimethoxybenzyl)-(2-phenylquinazolino-4-yl)-amine] gave a Glucose absorption of 1.4.
